From ChEMBL document CHEMBL3813620, “Discovery of selective inhibitors of tyrosyl-DNA phosphodiesterase 2 by targeting the enzyme DNA-binding cleft” (Bioorg Med Chem Lett, 2016)
Active and inactive are the calls of the source. The calls are words filed in the database; no cut-off is given here.

Tests used:
[1] = molecular target: T1, Tyrosyl-DNA phosphodiesterase 2 (Homo sapiens, UniProt O95551); assay: Inhibition of human recombinant TDP2 using alpha32P-cordycepin-3'-labeled TY19 as substrate after 15 mins by PAGE method
T1 sequence (O95551 whole entry): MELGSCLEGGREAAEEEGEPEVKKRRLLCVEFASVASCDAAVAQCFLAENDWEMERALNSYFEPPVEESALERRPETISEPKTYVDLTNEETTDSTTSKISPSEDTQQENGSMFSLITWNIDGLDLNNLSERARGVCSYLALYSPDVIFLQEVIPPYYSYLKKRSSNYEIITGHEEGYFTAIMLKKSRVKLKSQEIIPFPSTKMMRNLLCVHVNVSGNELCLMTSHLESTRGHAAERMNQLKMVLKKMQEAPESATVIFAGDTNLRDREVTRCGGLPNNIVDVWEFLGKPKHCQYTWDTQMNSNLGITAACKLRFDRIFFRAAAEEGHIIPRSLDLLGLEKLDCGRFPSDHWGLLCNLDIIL

[2] = molecular target: T2, Tyrosyl-DNA phosphodiesterase 2 (Danio rerio, UniProt Q5XJA0); assay: Inhibition of zebra fish recombinant TDP2 using alpha32P-cordycepin-3'-labeled TY19 as substrate after 15 mins by PAGE method
T2 sequence (Q5XJA0 whole entry): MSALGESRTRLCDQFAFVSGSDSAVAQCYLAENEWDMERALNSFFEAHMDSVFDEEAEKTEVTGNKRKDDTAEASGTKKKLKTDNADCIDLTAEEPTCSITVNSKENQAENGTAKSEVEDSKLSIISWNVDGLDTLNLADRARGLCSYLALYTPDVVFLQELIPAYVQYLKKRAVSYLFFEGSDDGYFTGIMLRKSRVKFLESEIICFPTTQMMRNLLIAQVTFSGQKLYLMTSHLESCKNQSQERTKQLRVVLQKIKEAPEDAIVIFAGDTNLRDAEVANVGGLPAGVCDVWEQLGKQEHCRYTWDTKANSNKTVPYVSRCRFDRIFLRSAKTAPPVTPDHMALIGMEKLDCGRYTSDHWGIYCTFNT

[3] = molecular target: T3, Tyrosyl-DNA phosphodiesterase 2 (Homo sapiens) (UniProt O95551); assay: Inhibition of endogenous human TDP2 within whole cell extracts from human TDP2-complemented DT40 chicken cells using TY19 DNA as substrate after 15 mins by spectrophotometric analysis
T3 sequence (whole entry): T1 sequence (O95551 whole entry)

[4] = molecular target: T4, Tyrosyl-DNA phosphodiesterase 2 (Mus musculus, UniProt Q9JJX7); assay: Inhibition of mouse recombinant TDP2 using alpha32P-cordycepin-3'-labeled TY19 as substrate after 15 mins by PAGE method
T4 sequence (Q9JJX7 whole entry): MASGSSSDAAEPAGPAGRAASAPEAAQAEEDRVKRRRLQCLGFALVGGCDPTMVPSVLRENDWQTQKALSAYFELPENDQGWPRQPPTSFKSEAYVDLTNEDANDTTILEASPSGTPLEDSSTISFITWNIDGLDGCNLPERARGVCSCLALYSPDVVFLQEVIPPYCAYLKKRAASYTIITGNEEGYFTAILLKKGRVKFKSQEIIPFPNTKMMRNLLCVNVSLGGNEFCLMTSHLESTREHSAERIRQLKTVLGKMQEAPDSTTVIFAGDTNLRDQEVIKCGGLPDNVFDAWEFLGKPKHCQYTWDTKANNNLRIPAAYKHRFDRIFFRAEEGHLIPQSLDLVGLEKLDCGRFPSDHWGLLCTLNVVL

[5] = molecular target: T5, Tyrosyl-DNA phosphodiesterase 1 (Homo sapiens, UniProt Q9NUW8); assay: Inhibition of human recombinant TDP1 using 5'-[32P]-labeled N14Y as substrate after 15 mins by PAGE method
[6] = molecular target: T1, Tyrosyl-DNA phosphodiesterase 2; assay: Inhibition of human TDP2
[7] = molecular target: T5, Tyrosyl-DNA phosphodiesterase 1; assay: Effect on human TDP1 up to 200 uM

T5 sequence (Q9NUW8 whole entry): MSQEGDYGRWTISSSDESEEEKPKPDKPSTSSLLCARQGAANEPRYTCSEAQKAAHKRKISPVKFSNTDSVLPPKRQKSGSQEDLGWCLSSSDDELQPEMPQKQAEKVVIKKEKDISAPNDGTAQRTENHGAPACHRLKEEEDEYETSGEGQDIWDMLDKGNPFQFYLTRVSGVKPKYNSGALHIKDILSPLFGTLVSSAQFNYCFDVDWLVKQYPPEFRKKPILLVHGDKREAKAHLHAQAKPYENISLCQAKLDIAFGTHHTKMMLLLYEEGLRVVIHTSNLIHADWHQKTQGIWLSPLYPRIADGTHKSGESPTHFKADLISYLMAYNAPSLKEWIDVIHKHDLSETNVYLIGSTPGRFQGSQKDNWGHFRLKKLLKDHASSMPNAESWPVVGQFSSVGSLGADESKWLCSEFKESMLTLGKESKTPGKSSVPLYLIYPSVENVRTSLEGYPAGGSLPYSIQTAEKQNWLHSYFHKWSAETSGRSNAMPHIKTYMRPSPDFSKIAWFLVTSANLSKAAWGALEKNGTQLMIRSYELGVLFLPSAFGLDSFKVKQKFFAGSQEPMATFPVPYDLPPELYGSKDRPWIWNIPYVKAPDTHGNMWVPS

Compound | IC50 [1] | IC50 [2] | inhibition [3] | IC50 [4] | IC50 [5] | IC50 [6] | Activity [7]
O=C(NC(CSSCC(NC(=O)c1ccccc1)C(=O)O)C(=O)O)c1ccccc1 (stereo not given) | 4.1 µM | 15 µM | Active | – | – | – | –
O=C(Cc1ccccc1)NC(CSSCC(NC(=O)Cc1ccccc1)C(=O)O)C(=O)O (stereo not given) | 9 µM | 20 µM | Active | > 111 µM | > 111 µM | – | –
N#CCCN(CCC#N)c1ccc(/C=C2\C(=O)N(c3ccc(S(=O)(=O)O)cc3)N=C2C(=O)O)cc1 | 3.5 µM | 5.2 µM | Active | 15 µM | > 111 µM | – | –
COc1ccc(CC2C(=O)N(c3ccc([N+](=O)[O-])cc3)N=C2C(=O)O)cc1Oc1ccc(F)cc1 (stereo not given) | – | – | – | – | – | 12 µM | inactive
